Source: patent US12202840B2, “Compounds for the treatment or alleviation of disorders associated with Tau aggregates” (AC Immune SA, priority 2018, dated 2025)

How the values were obtained:
[1] = target: T1, flTau aggregates (longest isoform of human Tau, 2N4R; 441 amino acids) (Homo sapiens, UniProt P10636); experiment: Full-length Tau (flTau) disaggregation assay by Thioflavin T (ThT); assay type: biochemical; conditions: 2 μM flTau aggregates, 160 to 0.04 μM compound, 30 minutes RT, ThT fluorescence
T1 construct: 35 μM of recombinant full-length (fl)Tau in PBS were aggregated for 24 hours; made in house; host or cells: bacteria
T1 sequence (P10636 1-441 isoform P10636-8): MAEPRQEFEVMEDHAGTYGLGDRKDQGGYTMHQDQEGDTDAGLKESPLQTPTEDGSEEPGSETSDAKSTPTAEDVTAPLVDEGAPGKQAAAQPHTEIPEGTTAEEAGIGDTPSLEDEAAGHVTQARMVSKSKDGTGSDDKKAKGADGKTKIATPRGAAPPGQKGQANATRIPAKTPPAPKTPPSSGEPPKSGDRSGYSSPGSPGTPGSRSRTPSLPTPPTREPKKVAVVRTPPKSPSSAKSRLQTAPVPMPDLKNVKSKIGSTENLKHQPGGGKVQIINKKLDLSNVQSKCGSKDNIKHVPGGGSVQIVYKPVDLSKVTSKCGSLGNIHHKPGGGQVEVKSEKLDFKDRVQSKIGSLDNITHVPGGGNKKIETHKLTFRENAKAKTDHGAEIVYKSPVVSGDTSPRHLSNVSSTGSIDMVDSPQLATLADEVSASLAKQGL
Method: Biological Assay Description Full-Length Tau (flTau) Disaggregation Assay by Thioflavin T (ThT)
The longest isoform of human Tau (2N4R; 441 amino acids) was expressed in bacteria and purified. For the Tau disaggregation assay by ThT, 35 μM of recombinant full-length (fl)Tau in PBS were aggregated for 24 hours at 37° C. in presence of 50 μM of heparin (Sigma-Aldrich) and 10 mM of DTT (Sigma-Aldrich) under shaking at 750 RPM. Compounds were dissolved in anhydrous dimethyl sulfoxide (DMSO, Sigma-Aldrich) to reach a concentration of 10 mM.
(§1) flTau aggregates and serial dilutions of compounds were mixed together in PBS (volume 50 μL) to a final concentration of 2 μM of flTau aggregates and from 160 to 0.04 μM of compounds. The mixture was incubated for 30 minutes at room temperature (RT), then 40 μL of this mixture were transferred into a black 384-well plate assay (Perkin-Elmer) and mixed with 10 μL of 100 μM ThT in 250 mM glycine (both from Sigma-Aldrich) in PBS. Fluorescence (relative fluorescence units; RFU) was measured in monoplicate or duplicate on a Tecan reader (excitation: 440 nm; emission: 485 nm). Percentage of flTau disaggregation was then calculated and the halfmaximal effective concentration (EC50) was determined using GraphPad Prism version 5 (GraphPad Software) assuming a one-binding site fitting model.

[2] = target: T2, K18 aggregates (Tau K18 fragment, amino acids 244 to 372 of human Tau441) (Homo sapiens, UniProt P10636); experiment: Tau K18 disaggregation assay by ThT; assay type: biochemical; conditions: 2 μM K18 aggregates, 160 to 0.04 μM compound, 30 minutes RT, ThT fluorescence; read-out: TauK18 disaggregation EC50
T2 construct: encompassing amino acids 244 to 372 of the longest isoform (2N4R) of human Tau441; host or cells: bacteria
T2 sequence (P10636 561-689): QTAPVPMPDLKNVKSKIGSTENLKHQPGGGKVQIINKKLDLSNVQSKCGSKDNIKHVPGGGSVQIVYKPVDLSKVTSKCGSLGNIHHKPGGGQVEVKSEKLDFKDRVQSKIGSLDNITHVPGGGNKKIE
Method: Tau K18 Disaggregation Assay by ThT
as §1, with “The Tau K18 fragment, encompassing amino acids 244 to 372 of the longest isoform (2N4R) of human Tau441, was expressed in bacteria and purified or bought from SignalChem. For the K18 disaggregation assay by ThT, 35 μM of recombinant K18 in PBS were aggregated for 24 hours at 37° C. in presence of 50 μM of heparin (Sigma-Aldrich) and 10 mM of DTT (Sigma-Aldrich) under shaking at 750 RPM. Compounds were dissolved in anhydrous dimethyl sulfoxide (DMSO, Sigma-Aldrich) to reach a concentration of 10 mM. K18 aggregates” for “flTau aggregates”, “of K18” for “of flTau”, “and half maximal” for “and the halfmaximal”

[3] = tested on: human neuroblastoma cell line overexpressing the full-length form of human Tau carrying the P301L mutation; experiment: Reduction of intracellular Tau aggregation (AlphaLISA); assay type: cell-based; conditions: compound at 5 μM, 24 h; aggregated Tau normalized to total Tau, relative to DMSO-treated cells
Method: Reduction of Intracellular Tau Aggregation
A human neuroblastoma cell line overexpressing the full-length form of human Tau carrying the P301L mutation was cultured in complete medium [DMEM-F12 4.5 g/L Glutamax (Invitrogen), 15% FBS (Biochrom), 1% Peni/Strep (Invitrogen) supplemented with 2.5 μg/ml of G418 (Sigma-Aldrich) selection antibiotic]. The day before the experiment 5×10^5 cells/well were plated in a 6 well plate in 3 mL of complete medium. The next day, cells were incubated with DMSO or a compound of the present invention at a 5 μM for additional 24 h at 37° C. After incubation, cells were trypsinized, resupsended in 100 μl of homogenization buffer [25 mM Tris-HCl pH 7.4, 150 mM NaCl, 1 mM EDTA, 1 mM EGTA containing phosphatase inhibitors (30 mM NaF, 0.2 mM Na3VO4, 1 nM Okadaic acid, 1 mM PMSF, 5 mM Na4P2O7) and protease inhibitor cocktail (Complete™, Roche)], and then physically lysed with three rapid cycles of freezing and thawing. Samples were then directly tested in the AlphaLISA assay.
Phosphorylated, aggregated, and total Tau were quantified by AlphaLisa using the following antibody pairs: • HT7-Acceptor beads+biotin (BT)-Tau13-Donor beads: Total Tau • HT7-Acceptor beads+biotin (BT)-HT7-Donor beads: Aggregated human Tau
The Tau13 (Abcam) was biotinylated using EZ-Link® NHS-PEO Solid Phase biotinylation kit (Thermo Scientific), while the HT7-biotin was from a commercial source (Thermo Scientific).
For each antibody pairs the concentration of acceptor beads and biotinylated antibodies was optimized. All samples were first tested in a dilution series in PBS in order to identify the linear range and optimal dilution for each sample and assay. For the final protocol, the following reagents were added in a 384-well white OptiPlate (Perkin Elmer): • 5 μL of test diluted sample • 20 μL of the mixture biotin-mAb acceptor beads at the following final concentrations: • HT7-BT at 1.25 nM in combination with HT7-Acc beads at 10 μg/ml • Tau13-BT at 5 nM in combination with HT7-Acc beads at 2.5 μg/ml
After incubation of this mixture at room temperature for 1 h, 25 μL of Streptavidin Donor beads (Perkin Elmer) at 25 μg/mL were added in the dark. Plates were analyzed after 30 min incubation using the EnSpire Alpha instrument and EnSpire Workstation version 3.00.
Data for aggregated Tau were normalized to total Tau and then expressed as percentage of the DMSO-treated cells.

SMILES	EC50 [1]	EC50 [2]	% Reduction of intracellular Tau aggregation [3]
CN(C)C1CCc2c(c3ccc(Nc4ccc5sc(N6CCC(F)CC6)nc5c4)nc3n2C)C1 (stereo not drawn) [Example 3]	< 10 µM	< 10 µM	++ (++ %50 < x < 25)
CN(C)C1CCc2oc3nc(Nc4ccc5sc(N6CCOCC6)nc5c4)ccc3c2C1 (stereo not drawn) [Example 5]		< 10 µM	
CC(C)N1CCc2c(c3ccc(Nc4ccc5sc(N6CCC(F)CC6)nc5c4)nc3n2C)C1 [Example 6]	< 10 µM	< 10 µM	
CC(C)N1CCc2oc3nc(Nc4ccc5nc(N6CCOCC6)sc5c4)ccc3c2C1 [Example 7]		< 10 µM	
CN(C)[C@H]1CCc2c(c3ccc(Nc4ccc5sc(N6CCOCC6)nc5c4)nc3n2C)C1 [Example 11]	< 10 µM	< 10 µM	
CN(C)C1CCc2c(c3ccc(Nc4ccc5nc(N6CCC(F)CC6)sc5c4)nc3n2C)C1 (stereo not drawn) [Example 14]	10 to 25 µM	10 to 25 µM	
CN(C)C1CCc2c(c3ccc(Nc4ccc5sc(N6CCC[C@H](F)C6)nc5c4)nc3n2C)C1 (stereo partly drawn) [Example 15]	< 10 µM	< 10 µM	
CN(C)C1CCc2c(c3ccc(Nc4ccc5sc(N6CCC[C@@H](F)C6)nc5c4)nc3n2C)C1 (stereo partly drawn) [Example 16]	< 10 µM	< 10 µM	
CN(C)[C@@H]1CCc2oc3nc(Nc4ccc5nc(N6CCOCC6)sc5c4)ccc3c2C1 [Example 22]		25 to 50 µM	
CN(C)C1CCc2oc3nc(Nc4ccc5nc(N6CCOCC6)oc5c4)ccc3c2C1 (stereo not drawn) [Example 28]		10 to 25 µM	
CN(C)C1CCc2[nH]c3nc(Nc4ccc5nc(N6CCOCC6)sc5c4)ccc3c2C1 (stereo not drawn) [Example 29]	< 10 µM		
CN(C)C1CCc2[nH]c3nc(Nc4ccc5oc(N6CCOCC6)nc5c4)ccc3c2C1 (stereo not drawn) [Example 30]	< 10 µM		
CN(C)[C@@H]1CCc2oc3nc(Nc4ccc5oc(N6CCOCC6)nc5c4)ccc3c2C1 [Example 36]		10 to 25 µM	

The next lines start with results.

EC50 [1]	EC50 [2]	SMILES	% Reduction of intracellular Tau aggregation [3]
	25 to 50 µM	CC(C)N1CCc2oc3nc(Nc4ccc5sc(N6CCOCC6)nc5c4)ccc3c2C1 [Example 8]	
	< 10 µM	CN(C)C1CCc2c(c3ccc(Nc4ccc5sc(N6CCOCC6)nc5c4)nc3n2C)C1 (stereo not drawn) [Example 9]	
< 10 µM	< 10 µM	CN(C)C1CCc2c(c3ccc(Nc4ccc5nc(N6CCOCC6)sc5c4)nc3n2C)C1 (stereo not drawn) [Example 10]	
< 10 µM	< 10 µM	CN(C)[C@H]1CCc2c(c3ccc(Nc4ccc5nc(N6CCOCC6)sc5c4)nc3n2C)C1 [Example 13]	
25 to 50 µM		CN(C)[C@@H]1CCc2c(c3ccc(Nc4ccc5nc(N6CCOCC6)oc5c4)nc3n2C)C1 [Example 17]	
25 to 50 µM	10 to 25 µM	CN(C)[C@@H]1CCc2c(c3ccc(Nc4ccc5oc(N6CCOCC6)nc5c4)nc3n2C)C1 [Example 18]	
10 to 25 µM	10 to 25 µM	CN(C)[C@@H]1CCc2c(c3ccc(Nc4ccc5nc(N6CCC[C@@H](F)C6)oc5c4)nc3n2C)C1 [Example 19]	
	25 to 50 µM	CN(C)C1CCc2oc3nc(Nc4ccc5nc(N6CCOCC6)sc5c4)ccc3c2C1 (stereo not drawn) [Example 20]	
	10 to 25 µM	CN(C)[C@H]1CCc2oc3nc(Nc4ccc5nc(N6CCOCC6)sc5c4)ccc3c2C1 [Example 21]	
< 10 µM	10 to 25 µM	CN(C)C1CCc2oc3nc(Nc4ccc5oc(N6CCOCC6)nc5c4)ccc3c2C1 (stereo not drawn) [Example 31]	
10 to 25 µM		CN(C)C1CCc2[nH]c3nc(Nc4ccc5nc(N6CCOCC6)oc5c4)ccc3c2C1 (stereo not drawn) [Example 32]	
	< 10 µM	CN(C)[C@@H]1CCc2oc3nc(Nc4ccc5sc(N6CCOCC6)nc5c4)ccc3c2C1 [Example 33]	
	< 10 µM	CN(C)[C@H]1CCc2oc3nc(Nc4ccc5sc(N6CCOCC6)nc5c4)ccc3c2C1 [Example 34]	
	< 10 µM	CN(C)[C@H]1CCc2oc3nc(Nc4ccc5oc(N6CCOCC6)nc5c4)ccc3c2C1 [Example 35]	
